The text below walks through data of patent US6632823B1, “Substituted pyridine compounds useful as modulators of acetylcholine receptors” (Merck & Co., Inc., priority 1997, dated 2003).

Molecules are shown by their SMILES. Where a name gives a salt, the structure may show the parent alone.

Turning to `CN1C2CCC1CC(SCc1ccccn1)C2` (stereo not drawn) (as salt: hydrochloride), the melting point lay in the range of 204 to 206 °C.
For `CN1C2CCC1CC(Sc1ccccn1)C2` (stereo not drawn) (as salt: hydrochloride) [3-[Endo-(2-Pyridine)thio]-8-methyl-8-azabbicyclo[3.2.1]octane], the melting point was in the range of 201 to 205 °C.
As for `CN1CCCC1CCSc1ccncc1` (stereo not drawn) (as salt: hydrochloride) [A = C, B = N, R1, R2, R4, R5 = H, D = absent, E = —S—, G = —] [2-[2-(4-Pyridine)thioethyl]-1-methylpyrrolidine], the melting point was 186.5 to 187.5 °C.

As a reminder, the melting point is the temperature of the solid-liquid transition.
